According to ChEMBL document CHEMBL3988442, “University of Dundee, Small-Polar-MMV Screening Library” (2021):

Legend:
[1] = microbe, parasite or virus in culture; conditions: Mycobacterium tuberculosis, 96 h, read-out: pIC50 (converted)
[2] = microbe, parasite or virus in culture; conditions: Mycobacterium tuberculosis, 72 h, read-out: pIC50 (converted)

| Structure (SMILES) | IC50 [1] | IC50 [2] |
| --- | --- | --- |
| CN(Cc1cccc(OC(F)(F)F)c1)C(=O)c1cnsn1 | 33.3 µM | 24.3 µM |
| CC(C)CCNC(=O)Nc1ccc(S(C)(=O)=O)cc1 | 127 µM | 162 µM |
| COc1ncccc1CN(C)C(=O)c1ccccc1F | > 501 µM | > 501 µM |
| Cc1ccc2c(c1)nc1n2[C@@H](CNC(=O)c2cccnc2)COC1 | > 50.1 µM | > 50.1 µM |
| O=C(Nc1ccccn1)C1Cc2ccccc2O1 (stereo unspecified) | 277 µM | 268 µM |
| COCC(=O)N1CCC2(CC1)OCCO2 | > 501 µM | > 501 µM |
| O=C(NCCSCc1cccc(Cl)c1)C1CNCCO1 (stereo unspecified) | 259 µM | 266 µM |
| O=C(Cc1cccs1)Nc1cnn(C2CCOC2)c1 (stereo unspecified) | > 50.1 µM | > 50.1 µM |
| CN(C)c1cc(CNc2ccc(C#N)cn2)ccn1 | 453 µM | 205 µM |
| Cc1cc(C)cc(OCC(=O)N2CCOCC2)c1 | > 501 µM | 155 µM |
| CSc1nccc(N2CCC3(CCCN(Cc4ccc(F)cc4)C3)C2)n1 (stereo unspecified) | 25.2 µM | 27.2 µM |
| CCN1CCN(c2ccccc2O)CC1 | 189 µM | 210 µM |
| Cc1cc(N2CCN(C(=O)Cc3ccc4c(c3)OCO4)CC2)cc(C)n1 | > 50.1 µM | > 50.1 µM |
| CCSc1ncc(CN2CCN(c3nc(C)cnc3C)CC2)cn1 | 28.7 µM | > 50.1 µM |
| Cc1ccc(NCc2cccc(O)c2)cc1S(C)(=O)=O | 333 µM | 89.7 µM |
| CCNCc1nc(-c2ccccc2)no1 | > 501 µM | > 501 µM |
| CC(N)Cc1nc(-c2ccccc2)no1 (stereo unspecified) | 115 µM | 173 µM |
| CC1CCCN(C(=O)c2nnn(-c3ccc(C(F)(F)F)cc3)n2)C1 (stereo unspecified) | 43.9 µM | 18.3 µM |
| Cc1nc(N2CCCC2)nc2c1CCN(Cc1ccsc1)CC2 | 1.59 µM | 0.893 µM |
| COCCN1CCC(CNCc2c[nH]nc2C(C)(C)C)CC1 | > 50.1 µM | 39.9 µM |
| CC(CO)(CO)NC(=O)c1cnc(-c2cccs2)s1 | > 501 µM | > 501 µM |
| COc1cn(-c2ccccc2)nc1C(=O)NCC(C)C | 294 µM | 282 µM |
| NC(=O)C1CCCN(CCc2ccccc2)C1 (stereo unspecified) | > 501 µM | > 501 µM |
| CC(CN)c1nc(-c2ccccc2)no1 (stereo unspecified) | 410 µM | 179 µM |
| COc1cccc(N2CCC(CN)C2)c1 (stereo unspecified) | 290 µM | 69.7 µM |
| CCCNc1nnc(SCC(C)(C)O)s1 | 159 µM | 297 µM |

| Structure (SMILES) | IC50 [1] | IC50 [2] |
| --- | --- | --- |
| O=C1CCCN1Cc1nnc(SCc2ccc3c(c2)CCC3)o1 | 46.5 µM | 22 µM |
| COc1ccc(-c2nc(CN(C)Cc3nncn3C)c(C)o2)c(C)c1C | 10.1 µM | 42.9 µM |
| CCCn1cc(CNc2nc(C3CC3)no2)cn1 | 151 µM | 125 µM |
| COc1ccc(CNc2ncc(-c3cc(C)no3)c(C(C)C)n2)cc1 | > 50.1 µM | > 50.1 µM |
| Cc1ccc(CN2CCC3(CC(=O)N(c4cccc(F)c4)C3)C2)o1 (stereo unspecified) | > 50.1 µM | 20.3 µM |
| CC(C)Nc1cc(Cl)ccc1OCCS(C)(=O)=O | 222 µM | 191 µM |
| CCOC(=O)Cn1nnc2ccccc2c1=O | > 501 µM | > 501 µM |
| NCC(=O)N1CCCC(CCc2ccc(F)c(F)c2)C1 (stereo unspecified) | 183 µM | 190 µM |
| Cc1nn(C)c(C)c1CN(CCO)C(=O)C1COc2ccccc2C1 (stereo unspecified) | > 50.1 µM | > 50.1 µM |
| Cc1ccc(-n2cc(CN3CCOCC3)c(-c3cccc(C)c3)n2)cc1 | > 50.1 µM | 24.8 µM |
| NCCN1CCN(c2cccc(C(F)(F)F)c2)CC1 | 260 µM | 356 µM |
| CC(C)Cc1ccc(CS(=O)(=O)CCO)cc1 | 83.5 µM | 353 µM |
| Cc1ccc(C2CCCN2Cc2nc(-c3ccco3)no2)cc1 (stereo unspecified) | 18.7 µM | 21.8 µM |
| CCNc1ncc(C(=O)N2CCOC(CCCC(C)C)C2)cn1 (stereo unspecified) | 43 µM | > 50.1 µM |
| CCc1ncc(CN(CCc2ccccc2)Cc2cccs2)cn1 | 9.25 µM | 19.7 µM |
| FC(F)(F)c1ccnc(N2CCC(c3nccn3CC3CC3)CC2)n1 | 16.3 µM | 44.6 µM |
| CN(Cc1ccncc1)S(=O)(=O)c1cccs1 | > 501 µM | 116 µM |
| CSc1cccc(CN(C)C(=O)CNC2CC2)c1 | > 501 µM | 297 µM |
| COc1ccnc(CN2CCCC2CSC)c1OC (stereo unspecified) | > 501 µM | 180 µM |
| OC1CCN(Cc2cc(Cl)c3c(c2)OCCO3)CC1 | > 501 µM | > 501 µM |
| OC(CN1CCn2ccnc2C1)c1ccc(Cl)cc1 (stereo unspecified) | > 501 µM | 186 µM |
| CCOC(C)c1nc(Cn2cccn2)cs1 (stereo unspecified) | > 50.1 µM | > 50.1 µM |
| NC(=O)CCSCc1ccn(-c2ccccc2)n1 | 229 µM | > 501 µM |
| N#Cc1cc(F)c(NCCc2ccc(F)cc2)c(F)c1 | 22.5 µM | > 50.1 µM |
| CN1Cc2cc(-c3csc(N)n3)ccc2NC1=O | > 501 µM | > 501 µM |
| COCCNS(=O)(=O)c1cccc2c1CN(C(=O)c1ccoc1)CC2 | > 50.1 µM | > 50.1 µM |

| Structure (SMILES) | IC50 [1] | IC50 [2] |
| --- | --- | --- |
| Brc1cncc(NCc2ncc[nH]2)c1 | > 501 µM | 475 µM |
| COC(=O)c1cc(C)nc(N2CCN(Cc3cc(C(C)C)no3)CC2)n1 | > 50.1 µM | > 50.1 µM |
| Cc1ccc(C(=O)NCCCN(C)S(C)(=O)=O)cc1-n1cccc1 | > 50.1 µM | 30.9 µM |
| N#Cc1ccc(N2CCC3(CC2)COCCN3Cc2cccnc2)cc1 | > 50.1 µM | > 50.1 µM |
| CCNC(=O)NCC(C)Oc1cccc(OC)c1 (stereo unspecified) | 301 µM | 254 µM |
| CC(C)CN(Cc1nnc(-c2ccco2)o1)CC(C)C | > 50.1 µM | 4.4 µM |
| NCc1cc(Oc2cccc(F)c2)ccn1 | > 501 µM | 45.4 µM |
| O=C(NCC1(CO)CC1)OCc1ccccc1 | 149 µM | 149 µM |
| Cc1nc(Cn2cc(S(=O)(=O)N(C)C)ccc2=O)cs1 | > 501 µM | 326 µM |
| Nc1cc(-c2ccc(I)cc2)nn1CCO | > 501 µM | > 501 µM |
| COC(=O)C1CCN(C(=O)Cc2cccc(F)c2)CC1 | > 501 µM | 179 µM |
| COC[C@H]1CCCN1c1nccc(-c2cnn(-c3ccccc3C)c2)n1 | 43.3 µM | 17.8 µM |
| NCc1nc(-c2cccc(Cl)c2)no1 | > 501 µM | 323 µM |
| CC1COC2(CCN(C(=O)c3ccc(Cl)s3)CC2)O1 (stereo unspecified) | 45.1 µM | 25.7 µM |
| FC(F)Oc1ccc(NCc2nc(C3CC3)no2)c(OC(F)F)c1 | > 50.1 µM | 24.2 µM |
| O=C(CNC(=O)c1cccs1)c1ccccc1 | > 501 µM | > 501 µM |
| OCC1CCN(CCc2ccccc2)C1 (stereo unspecified) | 243 µM | 393 µM |
| CC(C)c1cccc(S(=O)(=O)NCCN)c1 | > 501 µM | 219 µM |
| CC(Sc1nc2ccccc2o1)C(=O)N1CCOCC1 (stereo unspecified) | 11.7 µM | 19.2 µM |
| O=C(c1ccc(F)cc1)N1C[C@H]2CCC[C@@]2(COCc2ccncc2)C1 | > 50.1 µM | > 50.1 µM |
| O=C1N(Cc2ccc(F)c(F)c2)CCCC12CCN(C1CCCCC1)C2 (stereo unspecified) | 26.3 µM | 15.1 µM |
| Cc1ccc(-c2noc(C(C)N)n2)cc1F (stereo unspecified) | 327 µM | 368 µM |
| CC(c1nc(COc2ccc(F)cc2)no1)S(C)(=O)=O (stereo unspecified) | 157 µM | 230 µM |
| CC(O)(CNc1ncccc1F)C1CCCC1 (stereo unspecified) | 262 µM | 142 µM |
| N#Cc1ccc(S(=O)(=O)NCCCN)cc1C(F)(F)F | > 501 µM | 205 µM |
| O=C(NC1CC1)N1CCN(c2ncccc2Cl)CC1 | > 501 µM | > 501 µM |

| Structure (SMILES) | IC50 [1] | IC50 [2] |
| --- | --- | --- |
| CC1CCCN(CC(=O)Nc2ccccc2C(N)=O)C1 (stereo unspecified) | > 501 µM | 248 µM |
| CC(=O)N1CCCC1c1nnn2cc(-c3ccncc3)ccc12 (stereo unspecified) | > 50.1 µM | > 50.1 µM |
| COC(=O)N1CC(NC(=O)c2cc(C(C)=O)c[nH]2)C1 | > 501 µM | > 501 µM |
| CCN(C1CC1)S(=O)(=O)c1ccc2c(c1)OCCO2 | > 501 µM | 162 µM |
| Cc1cc(Br)cc2cc(C(=O)NC(C)(CO)CO)oc12 | 285 µM | 369 µM |
| CCOC(=O)c1cc(C(C)(O)CCC=C(C)C)on1 (stereo unspecified) | 25.8 µM | 36.4 µM |
| O=C(NCC(O)c1ccc(F)cc1)Nc1cnns1 (stereo unspecified) | > 501 µM | > 501 µM |
| Cc1cc2nc(CN)[nH]c2cc1C | > 501 µM | 148 µM |
| CC(C)(C)c1ccc2c(c1)C(N)C(=O)N2 (stereo unspecified) | 260 µM | 377 µM |
| CCOCCN1CCN(Cc2nnc(OCC)s2)CC1 | > 501 µM | > 501 µM |
| COc1ccc2[nH]c(C(=O)NCC3CCCO3)cc2c1 (stereo unspecified) | 220 µM | 156 µM |
| CSc1ncc(C(=O)N2CCN(c3ccccc3C)CC2C)cn1 (stereo unspecified) | 18.3 µM | 16.4 µM |
| CS(=O)(=O)N1CCC(Cc2ccccc2)C1 (stereo unspecified) | 467 µM | 482 µM |
| CN(C)CCNC(=O)c1ccn(-c2ccc3ccccn23)n1 | > 50.1 µM | > 50.1 µM |
| Cc1nc(CNCC2COCc3c(-c4ccoc4)nnn3C2)cs1 (stereo unspecified) | > 50.1 µM | > 50.1 µM |
| Cc1ccc(N2CCN(C)c3ncccc3C2)nn1 | > 50.1 µM | > 50.1 µM |
| Cc1[nH]c(=O)[nH]c(=O)c1CN1CCCC(CCc2ccccc2F)C1 (stereo unspecified) | > 50.1 µM | > 50.1 µM |
| Cc1cnn(CCNCc2cccc3c2OCO3)c1 | > 501 µM | 258 µM |
| Cc1cc(C(=O)N(C)C[C@H](O)CO)cc(Cl)c1Br | 51.9 µM | 403 µM |
| O=C(c1cccnc1)N(CCO)Cc1cc(Br)ccc1F | > 50.1 µM | > 50.1 µM |
| CC(Cn1c(=O)[nH]c2ccccc2c1=O)N1CCCC1 (stereo unspecified) | 111 µM | 63.1 µM |
| Cc1ccc(C(=O)N2CCCC(c3cc(C(F)(F)F)[nH]n3)C2)o1 (stereo unspecified) | 26.2 µM | 15.4 µM |
| NC(=O)CN1CCC(COCc2ccccc2)C1 (stereo unspecified) | 292 µM | 268 µM |
| Cn1nc(C2CCCN(Cc3cc(F)ccc3F)C2)c2nccnc21 (stereo unspecified) | > 50.1 µM | > 50.1 µM |
| O=C(c1cc2c([nH]c1=O)CCC2)N1CCCC1c1ccccc1 (stereo unspecified) | > 50.1 µM | > 50.1 µM |
